Measurements from patent US20240208915A1, “A SOLID STATE FORM OF TAFAMIDIS AND A PROCESS FOR ITS PREPARATION” (Quimica Sintetica, S.A., priority 2021, published 2024).
Like-named read-outs stand apart in the source and are kept apart here.

How the values were obtained:
[1] = Stability studies: XRPD to evaluate any change in crystalline form; type: physicochemical
Description: (§1) The instruments and methods used to characterize the crystals obtained in the examples are as follows: • X-ray powder diffraction analyses (XRPD) were performed on a Bruker D8 Advance X-ray powder diffractometer at about 25° C. and ambient humidity (e.g. 25-35%), using a Cu Kα tube (40 kV, 40 mA, λ=1.5418 Å) as the X-ray source, equipped with a linear Lynxeye XE-T position sensitive detector set at 250 mm from the sample. A Nickel filter (0.0125 mm thickness) was mounted on the primary beam. Data collection was made in coupled mode, theta-theta configuration over an angular range between at least 3° 2 theta and 40° 2theta and a scan step of 0.02°. Fine powder samples were placed in a flat, thin layer in the 12 mm×0.2 mm cavity of a silicon low background plate fixed on a sample holder fitting an autosampler position. The instrument was previously calibrated by means of NIST SRM 1976b. Data acquisition was performed by means of Bruker Diffraction Measurement Center software; data elaboration was performed by means of Crystal Impact Match! or Bruker Diffrac. EVA software.
(§2) Vials containing 100 mg each of alpha form of present invention are stored at the following conditions, wherein RH is referred to relative humidity: • room Temperature (RT) and 80% RH, open vial • 40° C. and 75% RH, open vial
(§3) The sample were analysed before the storage (initial data), 8 days, 15 days and 4 weeks using X-ray powder diffractogram (XRPD) to evaluate any change in crystalline form and using HPLC to measure the chemical purity.
(§4) 700 mg of tafamidis form 4 of obtained according to present invention are stored at the following conditions, wherein RH is referred to relative humidity: • 40° C. and 75% RH, type A container.
(§5) The samples were analysed before the storage (initial data), after 1 month, 3 months, 6 months using X-ray powder diffractogram (XRPD) to evaluate any change in crystalline form and using HPLC to measure the chemical purity.

[2] = cited from earlier work
[3] = Chemical and physical stability over storage (summary statements)
Description: “Storage condition” referred to 2-(3,5-dichlorophenyl)-1,3-benzoxazole-6-carboxylic acid and its salt means that all the forms are stored in a close vessel at room temperature, ambient pressure and at relative humidity (RH) degree not more than 80%.

[4] = XRPD pattern after keeping at storage condition in a close vial; type: physicochemical; details: storage condition (room temperature, RH not more than 80%)
Description: as §1

[5] = Stability studies: HPLC to measure the chemical purity; type: physicochemical
Description: as §2, §3, §4, §5

Structure (SMILES): O=C(O)c1ccc2nc(-c3cc(Cl)cc(Cl)c3)oc2c1 [form 4, 2-(3,5-dichlorophenyl)-1,3-benzoxazole-6-carboxylic acid]
- transformation into a different crystalline form (XRPD) ([1]; 40° C., 75% RH, type A container, after 6 months): no signs of transformation into a different crystalline form
- thermodynamic stability of the form ([2]; high temperature): more stable
- chemical and physical stability ([3]; stored for several months at 40° C. and 75% RH): chemically and physically stable
- change of XRPD pattern ([4]; 10 months): does not change its XRPD pattern

Structure (SMILES): O=C(O)c1ccc2nc(-c3cc(Cl)cc(Cl)c3)oc2c1 [form I, 2-(3,5-dichlorophenyl)-1,3-benzoxazole-6-carboxylic acid]
- solid form conversion upon drying ([2]; vacuum dryer at 100-160° C. (WO 2020/232325, examples 16 to 20)): convert into form 4

Structure (SMILES): O=C(O)c1ccc2nc(-c3cc(Cl)cc(Cl)c3)oc2c1 [form alpha, 2-(3,5-dichlorophenyl)-1,3-benzoxazole-6-carboxylic acid]
- transformation into a different crystalline form (XRPD) ([1]; 40° C., 75% RH, open vial, after 4 weeks): no signs of transformation
- transformation into a different crystalline form (XRPD) ([1]; room temperature, 80% RH, open vial, after 4 weeks): no signs of transformation
- chemical purity by HPLC versus initial profile ([5]; 40° C., 75% RH, open vial, up to 4 weeks): does not present a significant worsening of the purity
- chemical purity by HPLC versus initial profile ([5]; 40° C., 75% RH, type A container, up to 6 months): does not present a significant worsening of the purity
- chemical purity by HPLC versus initial profile ([5]; room temperature, 80% RH, open vial, up to 4 weeks): does not present a significant worsening of the purity
- chemical and physical stability (polymorphic form, chemical purity) ([3]; storage between 15 to 60° C. for several weeks at different degree of humidity): chemically and physically stable

Structure (SMILES): O=C(O)c1ccc2nc(-c3cc(Cl)cc(Cl)c3)oc2c1 [form 1, 2-(3,5-dichlorophenyl)-1,3-benzoxazole-6-carboxylic acid]
- thermodynamic stability of the form ([2]; room temperature): thermodynamically stable form
- chemical and physical stability (XRPD pattern, degradation) ([3]; kept at storage condition): chemically and physically stable
- change of XRPD pattern ([4]; 8 months): does not change its XRPD pattern

Structure (SMILES): O=C(O)c1ccc2nc(-c3cc(Cl)cc(Cl)c3)oc2c1 [amorphous, 2-(3,5-dichlorophenyl)-1,3-benzoxazole-6-carboxylic acid]
- solid form conversion upon storage ([2]; 1 week at 70° C. and 75% relative humidity): converts into crystalline form 4
